Results on 37 compounds are retold here after US10421718B2, “EBNA1 inhibitors and their method of use” (priority 2013, dated 2019).

This test concerns the target T1, His-EBNA1 (DNA binding domain of EBNA1, amino acids 459-607) (Epstein-Barr virus, UniProt P03211).
T1 construct: made in house; host or cells: E. coli
The experiment in a line: Inhibition of 5′-biotin-oPL4624 binding to His-EBNA1 using Alpha Screen technology. Particulars: Alpha Screen Activity (IC50, inhibition of 5′-biotin-oPL4624 binding to His-EBNA1), 15 nM His-EBNA1, 0.2 nM bt-oPL4624, 2 hr room temperature. How it is done:
Inhibition of 5′-biotin-oPL4624 binding to His-EBNA1 using Alpha Screen technology: Assays were performed using the DNA binding domain of EBNA1 (amino acids 459-607), which was His-tagged (His-EBNA1) and the self-complementary biotinylated (bt) oligonucleotide with the sequence 5′-bt-[…]-ATGCTACCC-3′ (bt-oPL4624). The protein was expressed in E. coli and purified according to Barwell, et al. (Barwell J A, Bochkarev A, Pfuetzner R A, Tong H, Yang D S, Frappier L, Edwards A M. (1995) Overexpression, purification, and crystallization of the DNA binding and dimerization domains of the Epstein-Barr virus nuclear antigen 1. J Biol Chem. 270: 20556-9.). The bt-oPL4624 oligonucleotide was purchased from Integrated DNA Technologies, Inc (IDT). AlphaScreen donor, acceptor beads and white, opaque 384-well assay plates were purchased from PerkinElmer, Inc.
Assays contained 15 nM His-EBNA1, 0.2 nM bt-oPL4624, 5 μg/mL AlphaScreen streptavidin donor beads and nickel chelate acceptor beads, and a series of concentrations of test compound ranging from 3.2 nM to 100 μM in a total volume of 40 μL assay buffer (25 mM Tris, pH 7.2, 160 mM NaCl, 1 mM MgCl2). His-EBNA1 (30 nM) and bt-oPL4624 (0.4 nM) were preincubated with 10 μg/mL nickel chelate AlphaScreen acceptor bead, or 10 μg/mL streptavidin AlphaScreen donor bead, respectively, for 30 minutes at room temperature in assay buffer. Twenty microliters of His-EBNA1/acceptor bead mix and bt-oPL4624/donor bead mix were transferred to assay plates containing […] of 1:3 serial dilutions of test compounds previously prepared in DMSO at concentrations ranging from 0.32 μM to 10 mM. Nonspecific binding was determined with 5 μg/mL AlphaScreen acceptor bead in the absence of His-EBNA1. After 2 hr incubation at room temperature, the AlphaScreen signal was measured on the Envision plate reader (PerkinElmer, Inc.) at 680 nm excitation and 570 nm emission. Inhibition values at each concentration of test compound were determined by setting 100% equal to raw data values in the absence of EBNA1 and 0% equal to the raw data values in the presence of EBNA1. Nonlinear regression fits of the inhibition values to a one-site dose-response equation were performed using GraphPad Prism.

T1 sequence (P03211 459-607): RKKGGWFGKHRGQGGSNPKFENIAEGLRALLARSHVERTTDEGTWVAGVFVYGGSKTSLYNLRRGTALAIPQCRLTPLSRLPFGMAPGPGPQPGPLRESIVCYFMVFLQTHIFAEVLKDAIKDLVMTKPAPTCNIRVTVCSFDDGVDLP

`CNS(=O)(=O)c1cccc(C#Cc2cccc(C(=O)O)c2-n2cccc2)c1` [Entry 1, 3-(3-methylsulfamoyl-phenylethynyl)-2-pyrrol-1-yl-benzoic acid] showed an IC50 of 1000 to 10000 nM.

With `O=C(O)c1cccc(C#Cc2c[nH]c3ccccc23)c1-n1cccc1` [Entry 2, 3-(1H-indol-3-ylethynyl)-2-pyrrol-1-yl-benzoic acid], the IC50 is < 1000 nM.

For `CS(=O)(=O)Nc1cccc(C#Cc2cccc(C(=O)O)c2-n2cccc2)c1` [Entry 3, 3-[2-(3-methanesulfonamidophenyl)ethynyl]-2-(1H-pyrrol-1-yl)benzoic acid], the concentration for half-maximal inhibition (IC50) was < 1000 nM.

Regarding `NS(=O)(=O)c1cccc(C#Cc2cccc(C(=O)O)c2-n2cccc2)c1` [Entry 4, 2-(1H-pyrrol-1-yl)-3-[2-(3-sulfamoylphenyl)ethynyl]benzoic acid], the IC50 is < 1000 nM.

Turning to `NC(=O)c1cccc(C#Cc2cccc(C(=O)O)c2-n2cccc2)c1` [Entry 5, 3-[2-(3-carbamoylphenyl)ethynyl]-2-(1H-pyrrol-1-yl)benzoic acid], the IC50 was < 1000 nM.

`O=C(O)c1cccc(C#Cc2ccc3nccn3c2)c1-n1cccc1` [Entry 6, 3-(2-{imidazo[1,2-a]pyridin-6-yl}ethynyl)-2-(1H-pyrrol-1-yl)benzoic acid] displayed an IC50 of 10000 to 100000 nM.

`O=C(O)c1cccc(C#Cc2ccnc(O)c2)c1-n1cccc1` [Entry 7, 3-[2-(2-hydroxypyridin-4-yl)ethynyl]-2-(1H-pyrrol-1-yl)benzoic acid] returned an IC50 of 10000 to 100000 nM.

Take `O=C(O)c1cccc(C#Cc2ccc3cn[nH]c3c2)c1-n1cccc1` [Entry 8, 3-[2-(1H-indazol-6-yl)ethynyl]-2-(1H-pyrrol-1-yl)benzoic acid]: the half-inhibitory concentration (IC50) was in the range of 1000 to 10000 nM.

Consider `CC1(C)CN(c2cccc(C#Cc3cccc(C(=O)O)c3-n3cccc3)c2)C1=O` [Entry 9, 3-{2-[3-(3,3-dimethyl-2-oxoazetidin-1-yl)phenyl]ethynyl}-2-(1H-pyrrol-1-yl)benzoic acid], for which the IC50 is < 1000 nM.

`CC(C)(CNc1cccc(C#Cc2cccc(C(=O)O)c2-n2cccc2)c1)C(=O)O` [Entry 10, 3-(2-{3-[(2-carboxy-2,2-dimethylethyl)amino]phenyl}ethynyl)-2-(1H-pyrrol-1-yl)benzoic acid] registered an IC50 of 1000 to 10000 nM.

Regarding `O=C(O)c1cccc(C#Cc2cnc3cnccn23)c1-n1cccc1` [Entry 11, 3-(2-{imidazo[1,2-a]pyrazin-3-yl}ethynyl)-2-(1H-pyrrol-1-yl)benzoic acid], the IC50 was < 1000 nM.

For `O=C(O)c1cccc(C#Cc2cnc3ccccn23)c1-n1cccc1` [Entry 12, 3-(2-{imidazo[1,2-a]pyridin-3-yl}ethynyl)-2-(1H-pyrrol-1-yl)benzoic acid], the half-maximal inhibitory concentration (IC50) is < 1000 nM.

`O=C(O)c1cccc(C#Cc2cccc3nccn23)c1-n1cccc1` [Entry 13, 3-(2-{imidazo[1,2-a]pyridin-5-yl}ethynyl)-2-(1H-pyrrol-1-yl)benzoic acid]: the IC50 lay in the range of 10000 to 100000 nM.

Regarding `O=C(O)c1cccc(C#Cc2cnc3[nH]ccc3c2)c1-n1cccc1` [Entry 14, 2-(1H-pyrrol-1-yl)-3-(2-{1H-pyrrolo[2,3-b]pyridin-5-yl}ethynyl)benzoic acid], the IC50 was 1000 to 10000 nM.

Turning to `Cn1ccc2c(C#Cc3cccc(C(=O)O)c3-n3cccc3)cccc21` [Entry 15, 3-[2-(1-methyl-1H-indol-4-yl)ethynyl]-2-(1H-pyrrol-1-yl)benzoic acid], the IC50 is < 1000 nM.

For the compound `Cn1ccc2cc(C#Cc3cccc(C(=O)O)c3-n3cccc3)ccc21` [Entry 16, 3-[2-(1-methyl-1H-indol-5-yl)ethynyl]-2-(1H-pyrrol-1-yl)benzoic acid], the IC50 was < 1000 nM.

Turning to `O=C(O)c1cccc(C#Cc2ccc3ccsc3c2)c1-n1cccc1` [Entry 17, 3-[2-(1-benzothiophen-6-yl)ethynyl]-2-(1H-pyrrol-1-yl)benzoic acid], the IC50 was 1000 to 10000 nM.

Consider `O=C(O)c1cccc(C#Cc2cccc3cc[nH]c23)c1-n1cccc1` [Entry 18, 3-[2-(1H-indol-7-yl)ethynyl]-2-(1H-pyrrol-1-yl)benzoic acid], for which the IC50 was < 1000 nM.

Take `O=C(O)c1cccc(C#Cc2ccccc2CO)c1-n1cccc1` [Entry 19, 3-{2-[2-(hydroxymethyl)phenyl]ethynyl}-2-(1H-pyrrol-1-yl)benzoic acid]: the IC50 was < 1000 nM.

As to `O=C(O)c1cccc(C#Cc2ccc(CO)cc2)c1-n1cccc1` [Entry 20, 3-{2-[4-(hydroxymethyl)phenyl]ethynyl}-2-(1H-pyrrol-1-yl)benzoic acid], the IC50 was < 1000 nM.

In the case of `Cc1ccc(C#Cc2cccc(C(=O)O)c2-n2c(C)ccc2C)cc1` [Entry 21, 2-(2,5-dimethyl-1H-pyrrol-1-yl)-3-[2-(4-methylphenyl)ethynyl]benzoic acid], the IC50 was < 1000 nM.

As to `Cc1ccc(C)n1-c1c(C#Cc2cccc(O)c2)cccc1C(=O)O` [Entry 22, 2-(2,5-dimethyl-1H-pyrrol-1-yl)-3-[2-(3-hydroxyphenyl)ethynyl]benzoic acid], the IC50 was < 1000 nM.

Regarding `O=C(O)c1cccc(C#Cc2ccc3c(c2)NCC3)c1-n1cccc1` [Entry 23, 3-[2-(2,3-dihydro-1H-indol-6-yl)ethynyl]-2-(1H-pyrrol-1-yl)benzoic acid], the half-inhibitory concentration (IC50) was < 1000 nM.

With `Cn1cc(C#Cc2cccc(C(=O)O)c2-n2cccc2)cn1` [Entry 24, 3-[2-(1-methyl-1H-pyrazol-4-yl)ethynyl]-2-(1H-pyrrol-1-yl)benzoic acid], the IC50 lay in the range of 1000 to 10000 nM.

Turning to `Cc1nc(C#Cc2cccc(C(=O)O)c2-n2cccc2)cn1C` [Entry 25, 3-[2-(1,2-dimethyl-1H-imidazol-4-yl)ethynyl]-2-(1H-pyrrol-1-yl)benzoic acid], the IC50 is 10000 to 100000 nM.

With `Cn1cncc1C#Cc1cccc(C(=O)O)c1-n1cccc1` [Entry 26, 3-[2-(1-methyl-1H-imidazol-5-yl)ethynyl]-2-(1H-pyrrol-1-yl)benzoic acid], the IC50 fell in the range of 10000 to 100000 nM.

Turning to `Cn1ccnc1C#Cc1cccc(C(=O)O)c1-n1cccc1` [Entry 27, 3-[2-(1-methyl-1H-imidazol-2-yl)ethynyl]-2-(1H-pyrrol-1-yl)benzoic acid], the IC50 is 10000 to 100000 nM.

The compound `O=C(O)c1cccc(C#Cc2cncs2)c1-n1cccc1` [Entry 28, 2-(1H-pyrrol-1-yl)-3-[2-(1,3-thiazol-5-yl)ethynyl]benzoic acid] yielded an IC50 of 10000 to 100000 nM.

Regarding `O=C(O)c1cccc(C#Cc2cscn2)c1-n1cccc1` [Entry 29, 2-(1H-pyrrol-1-yl)-3-[2-(1,3-thiazol-4-yl)ethynyl]benzoic acid], the IC50 was < 1000 nM.

Take `O=C(O)c1cccc(C#Cc2ccc3cc[nH]c3n2)c1-n1cccc1` [Entry 30, 2-(1H-pyrrol-1-yl)-3-(2-{1H-pyrrolo[2,3-b]pyridin-6-yl}ethynyl)benzoic acid]: the IC50 was in the range of 1000 to 10000 nM.

`CC(C)(O)c1cccc(C#Cc2cccc(C(=O)O)c2-n2cccc2)c1` [Entry 31, 3-{2-[3-(2-hydroxypropan-2-yl)phenyl]ethynyl}-2-(1H-pyrrol-1-yl)benzoic acid] displayed an IC50 of 1000 to 10000 nM.

The compound `CC(C)C(O)C#Cc1cccc(C(=O)O)c1-n1cccc1` (stereo not shown) [Entry 32, 3-(3-hydroxy-4-methylpent-1-yn-1-yl)-2-(1H-pyrrol-1-yl)benzoic acid] returned an IC50 of 1000 to 10000 nM.

For the compound `O=C(O)c1cccc(C#CC(O)c2ccccc2)c1-n1cccc1` (stereo not shown) [Entry 33, 3-(3-hydroxy-3-phenylprop-1-yn-1-yl)-2-(1H-pyrrol-1-yl)benzoic acid], the half-maximal inhibitory concentration (IC50) was < 1000 nM.

Regarding `O=C(O)c1cccc(C#Cc2c[nH]c3ncccc23)c1-n1cccc1` [Entry 34, 2-(1H-pyrrol-1-yl)-3-(2-{1H-pyrrolo[2,3-b]pyridin-3-yl}ethynyl)benzoic acid], the half-inhibitory concentration (IC50) was < 1000 nM.

As to `O=C(O)c1cccc(C#Cc2cccc3[nH]ccc23)c1-n1cccc1` [Entry 35, 3-[2-(1H-indol-4-yl)ethynyl]-2-(1H-pyrrol-1-yl)benzoic acid], the IC50 is < 1000 nM.

On to `O=C(O)c1cccc(C#Cc2ccn3ncnc3c2)c1-n1cccc1` [Entry 36, 2-(1H-pyrrol-1-yl)-3-(2-{[1,2,4]triazolo[1,5-a]pyridin-7-yl}ethynyl)benzoic acid], for which the IC50 is < 1000 nM.

As to `CN(C)S(=O)(=O)c1cccc(C#Cc2cccc(C(=O)O)c2-n2cccc2)c1` [Entry 37, 3-{2-[3-(dimethylsulfamoyl)phenyl]ethynyl}-2-(1H-pyrrol-1-yl)benzoic acid], the IC50 is < 1000 nM.
